Values joined by “and” are separate entries in the source; they are usually repeats but may differ in a detail not shown here. Equal values may be shown once.
Test system: human erythrocytes
Experiment: Untargeted metabolomics and 13C-glucose tracing of enolase inhibitor treated erythrocytes
Format: cell-based
Conditions: 1h
Method: Freshly collected erythrocytes were washed, resuspended to 10% hematocrit in buffer [25mM HEPES (pH 7.4), 120mM NaCl, 5.4mM KCl, 1.8mM CaCl2, and 1mM NaH2PO4], incubated for 1 hour at 37°C, then centrifuged at 2000xg for 5 minutes at 4°C, resuspended in fresh wash buffer to 30-40% hematocrit, and split into 210µL aliquots of packed erythrocytes. […] All samples were incubated at 37°C shaking at 500 RPM. Triplicate samples of supernatants and packed erythrocytes were collected at 0, 0.5, 1, and 6-hour intervals and snap-frozen in liquid N2.
RBC and media samples were extracted at 1:10 and 1:20 dilutions, respectively, in 5:3:2 MeOH : MeCN:H2O v/v/v, and supernatants analyzed on a Thermo Vanquish UHPLC coupled to a Thermo Q Exactive mass spectrometer, as extensively described ([Nemkov et al., 2015]; [Nemkov et al., 2017]). The extraction buffer was supplemented with 40uM 3-^13C lactate to allow absolute quantification of lactate isotopologues, including lactate generated via glycolysis ([1,2,3-^13C3] enriched) vs. the pentose phosphate pathway ([2,3-^13C2] enriched), as described ([Reisz et al., 2016]). Metabolite assignments, peak area integration and isotopologues distributions were determined using Maven (Princeton University) ([Nemkov et al., 2015]; [Nemkov et al., 2017]).
Data were auto-scaled and normalized to zero-hour time points. Metabolites were removed from the dataset if greater than 50% of the samples contained missing values or the relative standard deviation among replicates exceeded 25%. Additionally, data was filtered using the interquartile range to reduce near-constant values from the experiment by 5%.
A principal component analysis of preprocessed data was plotted with the 95% confidence interval minimum volume enclosing ellipsoid for each respective group (MetaboAnalyst, cluster, plotly). A two-way repeated measures analysis of variance (ANOVA) was performed with multiple comparisons corrected for using a false discovery rate p-value cutoff of 0.05. Metabolite-Pathway analysis was performed using the R package of MetaboAnalyst, as previously described ([Xia and Wishart, 2010]). Metabolite-Protein nodal analysis was performed using omicsnet.ca and as previously described ([Zhou and Xia, 2018]).

[1] = treated erythrocytes, one value per replicate sample, polarity +
[2] = treated erythrocytes, one value per replicate sample, polarity -
[3] = treated erythrocytes, replicate samples

With `CC(C)(C)C(=O)OCOP(=O)(OCOC(=O)C(C)(C)C)C1CC(O)N(O)C1=O` (stereo not shown) [POMSF] the “AMP level (metabolomics signal)” value (replicate samples) was 2.14E+06 and 1.66E+06 and 1.77E+06, the “ATP level (metabolomics signal)” value (replicate samples) was 1.57E+04 and 2.82E+04 and 2.26E+04 and the “Adenine level (metabolomics signal)” value (replicate samples) was 1.34E+05 and 1.22E+05 and 1.52E+05. The “Cytosine level (metabolomics signal)” value (replicate samples) was 3.68E+05 and 3.33E+05 and 3.22E+05, the “L-alanine level (metabolomics signal)” value (replicate samples) was 8.35E+06 and 9.14E+06 and 1.12E+07 and the “L-arginine level (metabolomics signal)” value (replicate samples) was 1.02E+07 and 1.01E+07 and 0.00E+00. The “L-asparagine level (metabolomics signal)” value (replicate samples) was 7.51E+06 and 6.72E+06 and 7.84E+06, the “L-aspartate level (metabolomics signal)” value (replicate samples) was 3.12E+07 and 3.26E+07 and 2.90E+07 and the “L-cysteine level (metabolomics signal)” value (replicate samples) was 1.80E+06 and 1.83E+06 and 5.70E+05. For the same molecule, the “L-glutamate level (metabolomics signal)” value (replicate samples) was 3.18E+07 and 2.68E+07 and 2.49E+07, the “L-glutamine level (metabolomics signal)” value (replicate samples) was 8.50E+07 and 9.01E+07 and 8.26E+07 and the “L-histidine level (metabolomics signal)” value (replicate samples) was 1.59E+06 and 1.54E+06 and 1.57E+06. The “L-isoleucine level (metabolomics signal)” value (replicate samples) was 1.27E+07 and 1.24E+07 and 1.09E+07, the “L-leucine level (metabolomics signal)” value (replicate samples) was 2.27E+08 and 2.54E+08 and 2.31E+08 and the “L-lysine level (metabolomics signal)” value (replicate samples) was 2.40E+06 and 2.03E+06 and 1.89E+06. For the same molecule, the “L-methionine level (metabolomics signal)” value (replicate samples) was 2.24E+07 and 2.35E+07 and 2.22E+07, the “L-phenylalanine level (metabolomics signal)” value (replicate samples) was 1.58E+07 and 1.49E+07 and 1.43E+07 and the “L-proline level (metabolomics signal)” value (replicate samples) was 6.58E+07 and 5.90E+07 and 5.39E+07. For the same molecule, the “L-serine level (metabolomics signal)” value (replicate samples) was 4.64E+06 and 5.26E+06 and 6.00E+06, the “L-threonine level (metabolomics signal)” value (replicate samples) was 8.46E+06 and 8.55E+06 and 8.85E+06 and the “L-tryptophan level (metabolomics signal)” value (replicate samples) was 5.00E+06 and 4.41E+06 and 4.35E+06. For the same molecule, the “L-tyrosine level (metabolomics signal)” value (replicate samples) was 2.58E+07 and 2.87E+07 and 2.75E+07, the “L-valine level (metabolomics signal)” value (replicate samples) was 1.53E+08 and 1.47E+08 and 1.51E+08 and the “dCMP level (metabolomics signal)” value (replicate samples) was 1.51E+04 and 1.42E+04 and 1.15E+04. For the same molecule, the “dTMP level (metabolomics signal)” value (replicate samples) was 1.28E+06 and 1.27E+06 and 1.22E+06, the “glycine level (metabolomics signal)” value (replicate samples) was 1.77E+06 and 2.28E+06 and 2.53E+06 and the “N-Acyl-D-aspartate (C06380) metabolite signal” value [1] was 1.57E+05 and 1.16E+05 and 1.31E+05. For the same molecule, the “Poly-gamma-D-glutamate (C05723) metabolite signal” value [1] was 5.78E+07 and 6.19E+07 and 5.54E+07, the “D-Ribitol 5-phosphate (C01068) metabolite signal” value [2] was 2.08E+04 and 2.67E+04 and 2.32E+04 and the “D-glucono-1,5-lactone (C00198) metabolite signal” value [2] was 3.06E+05 and 3.20E+05 and 3.38E+05. The “L-Noradrenaline (C00547) metabolite signal” value [2] was 3.16E+04 and 3.80E+04 and 3.20E+04, the “Oxalosuccinate (C05379) metabolite signal” value [2] was 9.37E+04 and 1.04E+05 and 9.63E+04 and the “Pyridoxamine (C00534) metabolite signal” value [2] was 1.68E+04 and 1.54E+04 and 2.58E+04. For the same molecule, the “Thioredoxin disulfide (C00343) metabolite signal” value [2] was 5.72E+04 and 1.02E+05 and 5.14E+04, the “1-4-beta-D-Xylan (metabolite signal)” value [3] was 1.97E+05 and 1.92E+05 and 2.09E+05 and the “2-Hydroxyglutarate/Citramalate (C02630) metabolite signal” value [3] was 7.86E+04 and 5.69E+04 and 5.61E+04. For the same molecule, the “5-6-Dihydrothymine (C00906) metabolite signal” value [3] was 2.50E+05 and 2.77E+05 and 2.96E+05, the “5-10-Methenyltetrahydrofolate (metabolite signal)” value [3] was 1.06E+05 (2×) and 7.96E+04 and the “5-Hydroxyisourate (C11821) metabolite signal” value [3] was 1.50E+06 and 2.10E+06 and 4.21E+06. For the same molecule, the “5-L-Glutamyl-taurine (metabolite signal)” value [3] was 1.11E+05 and 1.18E+05 and 1.16E+05, the “5-Oxoproline (metabolite signal)” value [3] was 8.27E+05 and 7.57E+05 and 7.14E+05 and the “(S)(+)-Allantoin (C02350) metabolite signal” value [3] was 1.72E+04 and 1.57E+04 and 2.62E+04. For the same molecule, the “Allantoate (C00499) metabolite signal” value [3] was 6.65E+05 and 5.04E+05 and 3.15E+05, the “Ascorbate (metabolite signal)” value [3] was 1.17E+05 and 8.53E+04 and 8.00E+04 and the “CMP-N-acetylneuraminate (metabolite signal)” value [3] was 1.67E+04 and 8.29E+03 and 7.76E+03. The “Carnosine (metabolite signal)” value [3] was 1.06E+05 and 9.45E+04 and 2.03E+05, the “Citrate (C00158) metabolite signal” value [3] was 4.35E+04 and 3.82E+04 and 3.29E+04 and the “Creatine (metabolite signal)” value [3] was 2.46E+08 and 2.26E+08 and 2.23E+08. For the same molecule, the “Creatinine (metabolite signal)” value [3] was 2.77E+06 and 2.62E+06 and 2.87E+06, the “Cys-Gly (metabolite signal)” value [3] was 2.32E+06 and 2.14E+06 and 1.32E+06 and the “D-Glucosamine (metabolite signal)” value [3] was 2.29E+05 and 1.27E+05 and 2.04E+05. For the same molecule, the “D-Glucose (C00031) metabolite signal” value [3] was 5.29E+06 and 5.04E+06 and 5.14E+06, the “D-Ribose (C00121) metabolite signal” value [3] was 1.64E+05 and 1.19E+05 and 1.18E+05 and the “Dehydroascorbate (metabolite signal)” value [3] was 6.32E+04 and 5.87E+04 and 4.12E+04. The “Dihydrofolate (metabolite signal)” value [3] was 3.00E+06 and 2.07E+06 and 9.85E+05, the “Dimethylglycine (metabolite signal)” value [3] was 8.86E+05 and 1.02E+06 and 8.96E+05 and the “Diphosphate (C00013) metabolite signal” value [3] was 2.94E+04 and 3.31E+04 and 1.77E+04. The “Fumarate (C00122) metabolite signal” value [3] was 1.04E+05 and 8.86E+04 and 8.87E+04, the “Glutathione (C00051) metabolite signal” value [3] was 1.54E+08 and 1.50E+08 and 9.17E+07 and the “Glutathione disulfide (metabolite signal)” value [3] was 1.48E+05 and 9.64E+04 and 9.50E+04. The “Hypoxanthine (C00262) metabolite signal” value [3] was 3.21E+04 and 1.66E+04 and 8.15E+03, the “IMP (C00130) metabolite signal” value [3] was 1.58E+05 and 9.80E+04 and 1.96E+05 and the “Inosine (C00294) metabolite signal” value [3] was 6.71E+04 and 6.29E+04 and 6.63E+04. For the same molecule, the “L-Citrulline (metabolite signal)” value [3] was 2.74E+06 and 3.23E+06 and 3.99E+06, the “L-Homoserine (metabolite signal)” value [3] was 2.34E+05 and 2.10E+05 and 2.35E+05 and the “Lactate (C01432) metabolite signal” value [3] was 9.22E+06 and 8.76E+06 and 8.98E+06. The “Malate (C00149) metabolite signal” value [3] was 1.55E+05 and 1.07E+05 and 9.91E+04, the “Mannitol (C00392) metabolite signal” value [3] was 1.01E+05 and 9.53E+04 and 1.38E+05 and the “N-Acetylneuraminate (metabolite signal)” value [3] was 2.25E+04 and 1.68E+04 and 2.38E+04. The “N-Glycoloyl-neuraminate (metabolite signal)” value [3] was 1.23E+05 and 1.51E+05 and 1.32E+05, the “NAD+ (C00003) metabolite signal” value [3] was 8.73E+04 and 4.11E+04 and 4.40E+04 and the “Nicotinamide (C00153) metabolite signal” value [3] was 3.46E+07 and 3.78E+07 and 4.86E+07. The “Ornithine (metabolite signal)” value [3] was 1.57E+06 (2×) and 1.55E+06, the “Oxaloacetate (C00036) metabolite signal” value [3] was 5.69E+04 and 5.42E+04 and 4.38E+04 and the “Phosphoserine (metabolite signal)” value [3] was 0.00E+00 (2×) and 3.46E+04. The “Putrescine (metabolite signal)” value [3] was 4.96E+04 and 2.87E+04 and 4.23E+04, the “Pyridoxal (C00250) metabolite signal” value [3] was 5.84E+04 and 5.75E+04 and 6.92E+04 and the “Pyruvate (C00022) metabolite signal” value [3] was 9.01E+05 and 7.95E+05 and 8.15E+05. The “S-Glutathionyl-L-cysteine (metabolite signal)” value [3] was 1.18E+05 and 8.54E+04 and 7.69E+04, the “Sedoheptulose 1-phosphate (C06222) metabolite signal” value [3] was 1.59E+04 and 1.93E+04 and 8.80E+03 and the “Spermidine (metabolite signal)” value [3] was 8.37E+06 and 7.92E+06 and 6.82E+06. The “Spermine (metabolite signal)” value [3] was 1.09E+07 and 1.10E+07 and 8.00E+06, the “Succinate (C00042) metabolite signal” value [3] was 7.45E+04 and 8.48E+04 and 5.74E+04 and the “Thymidine (C00214) metabolite signal” value [3] was 1.11E+04 and 1.24E+04 and 8.29E+03. The “UDP (C00015) metabolite signal” value [3] was 2.25E+05 and 1.89E+05 and 1.40E+05, the “UDP-N-acetyl-D-glucosamine (metabolite signal)” value [3] was 1.24E+04 and 7.59E+03 and 4.65E+03 and the “UDP-glucose (C00029) metabolite signal” value [3] was 2.38E+04 and 1.72E+04 and 9.18E+03. For the same molecule, the “Urate (C00366) metabolite signal” value [3] was 3.27E+04 and 2.94E+04 and 2.46E+04, the “Xanthine (C00385) metabolite signal” value [3] was 2.31E+05 and 1.91E+05 and 1.90E+05 and the “alpha-D-Glucosamine 1-phosphate (metabolite signal)” value [3] was 4.45E+05 and 6.15E+05 and 8.58E+05. For the same molecule, the “alpha-D-Ribose 1-phosphate (C00620) metabolite signal” value [3] was 6.39E+04 and 6.67E+04 and 4.32E+04, the “gamma-Glutamyl-gamma-aminobutyrate (metabolite signal)” value [3] was 7.63E+04 and 8.93E+04 and 1.06E+05 and the “gamma-L-Glutamyl-D-alanine (metabolite signal)” value [3] was 4.26E+04 and 3.07E+04 and 3.12E+04. The “gamma-L-Glutamyl-L-cysteine (metabolite signal)” value [3] was 3.96E+04 and 5.76E+04 and 1.90E+04.
